In patent publication US4395417A, “Antihyperlipidemic compositions” (Research Corporation, priority 1980, dated 1983):

Test system: serum cholesterol
Assay: Serum cholesterol of male CF1 mice (Liebermann-Burchard reaction)
Assay type: in vivo
Settings: Mus musculus, ip, 216 h; Table 1; 20 mg/kg/day I.P., male CF1 mice, N = 6, 9th day; control value 118 mg %; read-out: Serum Cholesterol, 9th day
Description: (§1) For hypolipidemic activity, the compounds were tested at 20 mg/kg/day administered I.P. to male CF1 mice (~30 g). On days 9 and 16 blood was collected by tail-vein bleeding. Serum cholesterol was determined by the Liebermann-Burchard reaction. Serum triglyceride levels were determined using the Hycel commercial kits on a separate group of mice, which were bled on day 14.

In order of rising response vs control in vivo at 20 mg/kg/day:
1. CC(=O)CCN1C(=O)c2ccccc2C1=O [1-N--Phthalimidobutan-3-one]  67 ± 11%
2. O=C1NS(=O)(=O)c2ccccc21 [Saccharin]  68 ± 11%
3. CCCCN1C(=O)c2ccccc2C1=O [N--n-Butylphthalimide]  72 ± 11%
4. O=C1CCC(=O)N1 [Succinimide]  78 ± 9%
5. O=C1NC(=O)c2cccc3cccc1c23 [1,8-Naphthalimide]  81 ± 6%
6. CC(=O)CCN1C(=O)CCC1=O [1-N--Succinimidobutan-3-one]  90 ± 9%
7. CC(=O)CCN1C(=O)c2cccc3cccc(c23)C1=O [1-N--(1,8-Naphthalimido)butan-3-one]  94 ± 12%

Same assay, conditions: Mus musculus, ip, 216 h; Table 3; mice, N = 6, 9th day; control 115 mg %; read-out: serum cholesterol, 9th day

In order of falling response vs control in vivo at 20 mg/kg/day:
1. CCCCN1C(=O)c2ccccc2C1=O [N--n-Butylphthalimide]  72 ± 10%
2. CC(=O)CCN1C(=O)c2ccccc2C1=O [1-N--Phthalimidobutan-3-one]  67 ± 11%

Same assay, conditions: Mus musculus, ip, 384 h; Table 1; 20 mg/kg/day I.P., male CF1 mice, N = 6, 16th day; control value 122 mg %; read-out: Serum Cholesterol, 16th day

In order of rising response vs control in vivo at 20 mg/kg/day:
1. CCCCN1C(=O)c2ccccc2C1=O [N--n-Butylphthalimide]  54 ± 6%
2. O=C1NC(=O)c2cccc3cccc1c23 [1,8-Naphthalimide]  61 ± 7%
3. CC(=O)CCN1C(=O)c2ccccc2C1=O [1-N--Phthalimidobutan-3-one]  63 ± 7%
4. O=C1NS(=O)(=O)c2ccccc21 [Saccharin]  67 ± 10%
5. O=C1CCC(=O)N1 [Succinimide]  73 ± 12%
6. CC(=O)CCN1C(=O)c2cccc3cccc(c23)C1=O [1-N--(1,8-Naphthalimido)butan-3-one]  86 ± 9%
7. CC(=O)CCN1C(=O)CCC1=O [1-N--Succinimidobutan-3-one]  88 ± 7%

Same assay, conditions: Mus musculus, ip, 384 h; Table 3; mice, N = 6, 16th day; control 118 mg %; read-out: serum cholesterol, 16th day

In order of falling response vs control in vivo at 20 mg/kg/day:
1. CC(=O)CCN1C(=O)c2ccccc2C1=O [1-N--Phthalimidobutan-3-one]  63 ± 7%
2. CCCCN1C(=O)c2ccccc2C1=O [N--n-Butylphthalimide]  54 ± 6%

Test system: serum triglyceride
Assay: Serum triglyceride levels of male mice (Hycel commercial kits)
Assay type: in vivo, male CF1 mice
Settings: Mus musculus, ip, 336 h; Table 1; 20 mg/kg/day I.P., male mice, N = 6, 14th day; control value 137 mg %; read-out: Serum Triglyceride, 14th day
Description: as §1

In order of falling response vs control in vivo at 20 mg/kg/day:
1. O=C1NC(=O)c2cccc3cccc1c23 [1,8-Naphthalimide]  87 ± 12%
2. CCCCN1C(=O)c2ccccc2C1=O [N--n-Butylphthalimide]  82 ± 10%
3. CC(=O)CCN1C(=O)CCC1=O [1-N--Succinimidobutan-3-one]  79 ± 15%
4. O=C1CCC(=O)N1 [Succinimide]  68 ± 7%
5. CC(=O)CCN1C(=O)c2ccccc2C1=O [1-N--Phthalimidobutan-3-one]  58 ± 7%
6. CC(=O)CCN1C(=O)c2cccc3cccc(c23)C1=O [1-N--(1,8-Naphthalimido)butan-3-one]  54 ± 15%
7. O=C1NS(=O)(=O)c2ccccc21 [Saccharin]  51 ± 16%

Same assay, conditions: Mus musculus, ip, 336 h; Table 3; mice, N = 6; control 138 mg %; read-out: serum triglycerides

In order of falling response vs control in vivo at 20 mg/kg/day:
1. CCCCN1C(=O)c2ccccc2C1=O [N--n-Butylphthalimide]  82 ± 16%
2. CC(=O)CCN1C(=O)c2ccccc2C1=O [1-N--Phthalimidobutan-3-one]  58 ± 7%

Target: T1, Acetyl-CoA Synthetase (Mus musculus, UniProt Q9QXG4)
T1 construct: gm wet tissue/30 min; from tissue
Assay: In vitro acetyl coenzyme A synthetase activity (method of Goodridge)
Assay type: biochemical, mice
Settings: Table 2, N = 6, x ± S.D., control 28.5 mg acetyl CoA formed/gm wet tissue/30 min.

T1 sequence (Q9QXG4 whole entry): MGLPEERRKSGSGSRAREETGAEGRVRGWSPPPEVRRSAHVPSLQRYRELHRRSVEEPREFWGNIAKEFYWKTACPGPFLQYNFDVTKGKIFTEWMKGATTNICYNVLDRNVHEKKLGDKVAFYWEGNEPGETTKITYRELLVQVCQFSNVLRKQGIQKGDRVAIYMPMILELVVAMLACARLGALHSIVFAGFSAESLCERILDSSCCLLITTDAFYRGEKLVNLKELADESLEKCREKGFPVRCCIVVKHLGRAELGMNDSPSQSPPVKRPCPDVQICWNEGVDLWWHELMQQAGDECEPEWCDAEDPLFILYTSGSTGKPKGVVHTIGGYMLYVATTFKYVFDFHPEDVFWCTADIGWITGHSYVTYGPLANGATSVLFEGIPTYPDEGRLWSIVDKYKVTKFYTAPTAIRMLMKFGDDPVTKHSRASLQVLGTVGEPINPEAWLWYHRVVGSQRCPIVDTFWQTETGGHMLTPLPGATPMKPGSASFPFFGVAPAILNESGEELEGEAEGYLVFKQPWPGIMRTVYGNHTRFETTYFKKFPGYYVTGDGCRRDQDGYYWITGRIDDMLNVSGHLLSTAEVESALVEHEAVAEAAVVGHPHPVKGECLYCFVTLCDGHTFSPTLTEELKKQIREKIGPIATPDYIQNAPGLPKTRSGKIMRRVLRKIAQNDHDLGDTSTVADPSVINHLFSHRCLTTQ

In order of rising “Acetyl-CoA Synthetase” value:
1. CCCCN1C(=O)c2ccccc2C1=O [N--n-Butylphthalimide]  44 ± 11 % Control
2. CC(=O)CCN1C(=O)c2ccccc2C1=O [1-N--Phthalimidobutan-3-one]  53 ± 12 % Control
3. CC(=O)CCN1C(=O)CCC1=O [1-N--Succinimidobutan-3-one]  58 ± 6 % Control
4. O=C1NS(=O)(=O)c2ccccc21 [Saccharin]  61 ± 7 % Control
5. O=C1NC(=O)c2cccc3cccc1c23 [1,8-Naphthalimide]  63 ± 9 % Control
6. O=C1CCC(=O)N1 [Succinimide]  74 ± 6 % Control
7. CC(=O)CCN1C(=O)c2cccc3cccc(c23)C1=O [1-N--(1,8-Naphthalimido)butan-3-one]  88 ± 5 % Control

Same assay, conditions: Table 3, N = 6, control 10.8 mg/g wet tissue

In order of falling “in vitro AcCoA synthetase” value:
1. CCCCN1C(=O)c2ccccc2C1=O [N--n-Butylphthalimide]  82 ± 7 % Control
2. CC(=O)CCN1C(=O)c2ccccc2C1=O [1-N--Phthalimidobutan-3-one]  53 ± 12 % Control

Target: T2, Citrate Lyase (Mus musculus, UniProt Q91V92)
T2 construct: 30.5 mg of citrate hydrolyzed/gm wet tissue/30 min; from tissue
T2 sequence (Q91V92 1-1091): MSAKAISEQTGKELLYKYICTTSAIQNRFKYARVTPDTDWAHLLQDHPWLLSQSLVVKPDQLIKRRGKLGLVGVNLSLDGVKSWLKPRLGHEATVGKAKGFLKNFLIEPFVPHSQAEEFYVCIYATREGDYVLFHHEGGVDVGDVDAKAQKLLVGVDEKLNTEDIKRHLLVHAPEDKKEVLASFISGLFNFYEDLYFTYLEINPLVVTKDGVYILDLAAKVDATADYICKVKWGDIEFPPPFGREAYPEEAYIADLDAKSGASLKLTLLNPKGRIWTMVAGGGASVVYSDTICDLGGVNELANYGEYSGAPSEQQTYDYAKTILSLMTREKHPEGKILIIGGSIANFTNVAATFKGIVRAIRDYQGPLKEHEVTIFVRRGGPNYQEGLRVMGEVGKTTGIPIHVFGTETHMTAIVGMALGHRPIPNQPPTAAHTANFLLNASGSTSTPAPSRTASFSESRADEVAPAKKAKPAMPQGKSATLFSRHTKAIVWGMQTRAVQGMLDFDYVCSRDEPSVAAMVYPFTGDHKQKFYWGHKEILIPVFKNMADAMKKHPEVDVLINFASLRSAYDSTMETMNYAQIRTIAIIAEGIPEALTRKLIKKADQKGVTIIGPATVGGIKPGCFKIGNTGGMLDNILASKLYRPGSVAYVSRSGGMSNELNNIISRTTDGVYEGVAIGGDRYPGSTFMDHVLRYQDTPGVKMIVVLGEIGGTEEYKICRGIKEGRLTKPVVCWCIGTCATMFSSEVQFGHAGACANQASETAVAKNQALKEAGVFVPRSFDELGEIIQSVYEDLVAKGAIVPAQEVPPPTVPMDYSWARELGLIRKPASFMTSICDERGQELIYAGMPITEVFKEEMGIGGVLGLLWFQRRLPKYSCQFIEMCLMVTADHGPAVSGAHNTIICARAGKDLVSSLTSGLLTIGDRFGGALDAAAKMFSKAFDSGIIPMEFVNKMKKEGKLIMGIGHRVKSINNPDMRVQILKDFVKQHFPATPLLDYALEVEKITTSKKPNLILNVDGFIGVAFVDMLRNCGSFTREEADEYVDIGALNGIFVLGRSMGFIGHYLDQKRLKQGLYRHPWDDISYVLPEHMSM
Assay: In vitro effect on citrate lyase
Assay type: biochemical
Settings: Table 2, N = 6, x ± S.D., control 30.5 mg of citrate hydrolyzed/gm wet tissue/30 min.

In order of rising “Citrate Lyase” value:
1. CC(=O)CCN1C(=O)c2ccccc2C1=O [1-N--Phthalimidobutan-3-one]  34 ± 4 % Control
2. CC(=O)CCN1C(=O)CCC1=O [1-N--Succinimidobutan-3-one]  38 ± 7 % Control
3. O=C1CCC(=O)N1 [Succinimide]  38 ± 3 % Control
4. CC(=O)CCN1C(=O)c2cccc3cccc(c23)C1=O [1-N--(1,8-Naphthalimido)butan-3-one]  60 ± 5 % Control
5. O=C1NS(=O)(=O)c2ccccc21 [Saccharin]  65 ± 6 % Control
6. O=C1NC(=O)c2cccc3cccc1c23 [1,8-Naphthalimide]  66 ± 6 % Control
7. CCCCN1C(=O)c2ccccc2C1=O [N--n-Butylphthalimide]  72 ± 9 % Control

Target: T3, Acetyl-CoA Carboxylase (Mus musculus, UniProt Q5SWU9)
T3 construct: 32,010 dpm/gm wet tissue/30 min; from tissue
Assay: In vitro acetyl coenzyme A carboxylase activity (method of Greenspan and Lowenstein)
Assay type: biochemical
Settings: Table 2, N = 6, x ± S.D., control 32,010 dpm/gm wet tissue/30 min.

In order of rising “Acetyl-CoA Carboxylase” value:
1. O=C1NS(=O)(=O)c2ccccc21 [Saccharin]  9 ± 2 % Control
2. CC(=O)CCN1C(=O)c2ccccc2C1=O [1-N--Phthalimidobutan-3-one]  17 ± 3 % Control
3. CC(=O)CCN1C(=O)c2cccc3cccc(c23)C1=O [1-N--(1,8-Naphthalimido)butan-3-one]  59 ± 8 % Control
4. CCCCN1C(=O)c2ccccc2C1=O [N--n-Butylphthalimide]  76 ± 3 % Control
5. O=C1CCC(=O)N1 [Succinimide]  87 ± 7 % Control
6. CC(=O)CCN1C(=O)CCC1=O [1-N--Succinimidobutan-3-one]  100 ± 5 % Control
7. O=C1NC(=O)c2cccc3cccc1c23 [1,8-Naphthalimide]  106 ± 6 % Control

Target: T4, Fatty Acid Synthetase (Mus musculus, UniProt P19096)
T4 construct: gm wet tissue/30 min; from tissue
Assay: In vitro effect on fatty acid synthetase
Assay type: biochemical
Settings: Table 2, N = 6, x ± S.D.

T4 sequence (P19096 whole entry): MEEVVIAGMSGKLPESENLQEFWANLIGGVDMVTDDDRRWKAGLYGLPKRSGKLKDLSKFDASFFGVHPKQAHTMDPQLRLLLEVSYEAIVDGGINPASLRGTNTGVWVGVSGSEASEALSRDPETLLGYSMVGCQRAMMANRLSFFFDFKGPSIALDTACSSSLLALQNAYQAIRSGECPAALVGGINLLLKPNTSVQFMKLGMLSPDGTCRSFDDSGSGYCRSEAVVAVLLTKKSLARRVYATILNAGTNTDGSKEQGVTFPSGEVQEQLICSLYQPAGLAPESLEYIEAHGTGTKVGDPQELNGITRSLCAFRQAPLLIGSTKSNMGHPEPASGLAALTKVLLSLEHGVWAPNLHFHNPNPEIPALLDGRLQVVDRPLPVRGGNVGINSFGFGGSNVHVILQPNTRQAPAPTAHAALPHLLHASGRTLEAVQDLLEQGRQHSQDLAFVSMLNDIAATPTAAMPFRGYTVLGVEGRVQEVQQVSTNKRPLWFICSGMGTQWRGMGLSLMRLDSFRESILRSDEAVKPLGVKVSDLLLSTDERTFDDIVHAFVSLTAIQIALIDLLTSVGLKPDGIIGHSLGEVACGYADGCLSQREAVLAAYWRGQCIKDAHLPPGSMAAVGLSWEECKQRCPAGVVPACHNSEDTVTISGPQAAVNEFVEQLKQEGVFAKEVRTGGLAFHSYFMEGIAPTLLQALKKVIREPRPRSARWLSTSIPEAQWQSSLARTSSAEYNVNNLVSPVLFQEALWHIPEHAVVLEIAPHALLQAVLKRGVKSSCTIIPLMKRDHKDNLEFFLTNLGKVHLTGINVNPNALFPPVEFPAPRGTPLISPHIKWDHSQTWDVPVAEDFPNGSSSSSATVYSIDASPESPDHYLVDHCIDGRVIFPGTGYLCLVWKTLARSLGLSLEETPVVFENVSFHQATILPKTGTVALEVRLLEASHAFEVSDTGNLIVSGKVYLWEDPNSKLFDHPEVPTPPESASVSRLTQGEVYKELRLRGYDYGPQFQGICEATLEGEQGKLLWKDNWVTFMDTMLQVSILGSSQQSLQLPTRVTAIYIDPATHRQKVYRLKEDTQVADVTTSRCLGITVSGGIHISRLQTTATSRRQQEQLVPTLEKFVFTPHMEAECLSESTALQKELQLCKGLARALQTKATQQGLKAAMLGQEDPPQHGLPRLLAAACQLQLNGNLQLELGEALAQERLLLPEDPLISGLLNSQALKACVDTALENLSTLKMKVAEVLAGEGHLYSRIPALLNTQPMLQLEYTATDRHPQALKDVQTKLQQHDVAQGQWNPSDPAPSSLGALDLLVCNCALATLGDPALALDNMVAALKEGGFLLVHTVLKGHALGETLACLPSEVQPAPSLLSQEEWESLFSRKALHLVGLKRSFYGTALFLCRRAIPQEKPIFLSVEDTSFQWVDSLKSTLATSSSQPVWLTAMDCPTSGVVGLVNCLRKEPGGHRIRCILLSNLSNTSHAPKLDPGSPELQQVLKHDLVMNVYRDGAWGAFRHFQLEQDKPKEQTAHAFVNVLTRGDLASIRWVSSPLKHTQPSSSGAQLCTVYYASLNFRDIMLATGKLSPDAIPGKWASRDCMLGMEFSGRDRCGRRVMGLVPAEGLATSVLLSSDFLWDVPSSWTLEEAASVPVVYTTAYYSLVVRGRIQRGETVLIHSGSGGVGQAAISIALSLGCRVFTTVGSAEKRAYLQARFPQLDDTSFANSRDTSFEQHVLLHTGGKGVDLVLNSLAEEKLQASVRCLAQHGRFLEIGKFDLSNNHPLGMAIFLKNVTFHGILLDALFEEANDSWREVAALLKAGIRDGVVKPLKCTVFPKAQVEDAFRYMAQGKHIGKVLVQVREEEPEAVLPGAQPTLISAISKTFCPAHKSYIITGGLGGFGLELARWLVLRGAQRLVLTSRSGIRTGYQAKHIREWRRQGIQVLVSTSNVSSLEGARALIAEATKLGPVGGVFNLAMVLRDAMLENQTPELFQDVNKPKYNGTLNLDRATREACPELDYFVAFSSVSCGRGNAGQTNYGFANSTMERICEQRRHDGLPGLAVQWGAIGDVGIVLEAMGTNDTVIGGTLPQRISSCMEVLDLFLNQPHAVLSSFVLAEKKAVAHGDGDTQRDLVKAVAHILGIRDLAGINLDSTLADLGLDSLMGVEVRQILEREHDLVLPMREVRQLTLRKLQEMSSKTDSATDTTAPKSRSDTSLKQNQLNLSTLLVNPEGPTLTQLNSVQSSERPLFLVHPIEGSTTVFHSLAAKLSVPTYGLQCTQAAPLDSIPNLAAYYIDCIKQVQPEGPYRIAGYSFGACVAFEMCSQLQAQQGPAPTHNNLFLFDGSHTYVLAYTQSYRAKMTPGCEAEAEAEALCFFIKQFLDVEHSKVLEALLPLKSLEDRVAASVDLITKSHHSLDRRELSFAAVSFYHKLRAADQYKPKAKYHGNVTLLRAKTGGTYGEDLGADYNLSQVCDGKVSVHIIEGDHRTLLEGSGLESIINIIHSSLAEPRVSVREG

In order of falling “Fatty Acid Synthetase” value:
1. CC(=O)CCN1C(=O)c2ccccc2C1=O [1-N--Phthalimidobutan-3-one]  109 ± 7 % Control
2. CC(=O)CCN1C(=O)c2cccc3cccc(c23)C1=O [1-N--(1,8-Naphthalimido)butan-3-one]  103 ± 4 % Control
3. O=C1CCC(=O)N1 [Succinimide]  98 ± 9 % Control
4. O=C1NS(=O)(=O)c2ccccc21 [Saccharin]  93 ± 5 % Control
5. O=C1NC(=O)c2cccc3cccc1c23 [1,8-Naphthalimide]  86 ± 8 % Control
6. CC(=O)CCN1C(=O)CCC1=O [1-N--Succinimidobutan-3-one]  81 ± 7 % Control
7. CCCCN1C(=O)c2ccccc2C1=O [N--n-Butylphthalimide]  75 ± 10 % Control
